In ChEMBL document CHEMBL5725665, “Pyrazolopyridines and pyrazolopyrimidines” (2018):

Legend:
[1] = target: T1, Tyrosine-protein kinase JAK3 (Homo sapiens, UniProt P52333); assay: (§1) JAK Caliper Enzyme Assay at 1 mM ATP: Test article was solubilized in dimethyl sulfoxide (DMSO) to a stock concentration of 30 mM. An 11-point half log dilution series was created in DMSO with a top concentration of 600 μM. […] The compound plates were diluted 1 to 60 resulting in a top final assay compound concentration of 10 μM and a 2% DMSO concentration.Test article and assay controls were added to a 384-well plate. Reaction mixtures contained 20 mM HEPES, pH 7.4, 10 mM magnesium chloride, 0.01% bovine serum albumin (BSA), 0.0005% Tween 20, 1 mM ATP and 1 μM peptide substrate. The JAK1 and TYK2 assays contained 1 μM of the IRStide peptide (5FAM-[…]) and the JAK2 and JAK3 assays contained 1 μM of the JAKtide peptide (FITC-[…]). […] Enzyme concentrations and incubation times were optimized for each new enzyme preps and were modified slightly over time to ensure 20%-30% phosphorylation. The assays were stopped with a final concentration of 10 mM EDTA, 0.1% Coating Reagent and 100 mM HEPES, pH=7.4. The assay plates were placed on a Caliper Life Science Lab Chip 3000 (LC3000) instrument, and each well was sampled using appropriate separation conditions to measure the unphosphorylated and phosphorylated peptide.
T1 sequence (P52333 whole entry): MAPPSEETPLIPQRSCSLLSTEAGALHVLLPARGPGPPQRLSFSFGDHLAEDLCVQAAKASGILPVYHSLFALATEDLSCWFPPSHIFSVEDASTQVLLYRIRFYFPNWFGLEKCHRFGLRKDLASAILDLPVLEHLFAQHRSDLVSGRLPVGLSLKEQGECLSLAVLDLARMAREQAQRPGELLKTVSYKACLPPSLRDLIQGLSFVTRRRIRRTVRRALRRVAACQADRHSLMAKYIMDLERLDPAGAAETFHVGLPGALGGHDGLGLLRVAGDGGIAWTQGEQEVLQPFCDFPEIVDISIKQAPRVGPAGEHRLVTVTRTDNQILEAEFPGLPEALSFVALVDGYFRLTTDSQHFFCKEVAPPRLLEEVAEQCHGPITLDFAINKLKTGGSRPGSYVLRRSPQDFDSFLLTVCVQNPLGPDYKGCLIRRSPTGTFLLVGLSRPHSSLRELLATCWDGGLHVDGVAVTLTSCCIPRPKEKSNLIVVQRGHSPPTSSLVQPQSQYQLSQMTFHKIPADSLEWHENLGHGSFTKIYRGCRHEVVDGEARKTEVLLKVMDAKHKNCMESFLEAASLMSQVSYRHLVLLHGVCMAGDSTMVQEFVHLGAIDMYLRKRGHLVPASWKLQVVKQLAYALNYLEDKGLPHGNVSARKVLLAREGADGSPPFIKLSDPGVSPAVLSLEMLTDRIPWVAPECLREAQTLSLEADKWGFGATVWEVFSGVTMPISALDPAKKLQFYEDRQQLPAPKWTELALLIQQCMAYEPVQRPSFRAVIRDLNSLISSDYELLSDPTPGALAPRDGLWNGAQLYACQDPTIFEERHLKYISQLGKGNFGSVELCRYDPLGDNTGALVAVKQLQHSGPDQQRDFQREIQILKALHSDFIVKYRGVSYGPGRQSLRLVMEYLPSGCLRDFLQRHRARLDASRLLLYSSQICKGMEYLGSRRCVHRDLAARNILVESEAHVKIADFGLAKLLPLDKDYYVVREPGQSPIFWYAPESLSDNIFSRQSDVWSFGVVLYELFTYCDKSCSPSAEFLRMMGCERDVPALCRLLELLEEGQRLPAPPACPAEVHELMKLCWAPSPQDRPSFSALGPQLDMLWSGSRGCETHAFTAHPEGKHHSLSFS

[2] = target: Non-receptor tyrosine-protein kinase TYK2 (Homo sapiens, UniProt P29597); assay: as §1
[3] = target: Tyrosine-protein kinase JAK1 (Homo sapiens, UniProt P23458); assay: as §1
[4] = target: Tyrosine-protein kinase JAK2 (Homo sapiens, UniProt O60674); assay: JAK Caliper Enzyme Assay at 1 mM ATP: Test article was solubilized in dimethyl sulfoxide (DMSO) to a stock concentration of 30 mM. An 11-point half log dilution series was created in DMSO with a top concentration of 600 μM. […] The compound plates were diluted 1 to 60 resulting in a top final assay compound concentration of 10 μM and a 2% DMSO concentration.Test article and assay controls were added to a 384-well plate. Reaction mixtures contained 20 mM HEPES, pH 7.4, 10 mM magnesium chloride, 0.01% bovine serum albumin (BSA), 0.0005% Tween 20, 1 mM ATP and 1 μM peptide substrate. […] Enzyme concentrations and incubation times were optimized for each new enzyme preps and were modified slightly over time to ensure 20%-30% phosphorylation. The assays were stopped with a final concentration of 10 mM EDTA, 0.1% Coating Reagent and 100 mM HEPES, pH=7.4. The assay plates were placed on a Caliper Life Science Lab Chip 3000 (LC3000) instrument, and each well was sampled using appropriate separation conditions to measure the unphosphorylated and phosphorylated peptide.
Chain of Tyrosine-protein kinase JAK2 (O60674 whole entry): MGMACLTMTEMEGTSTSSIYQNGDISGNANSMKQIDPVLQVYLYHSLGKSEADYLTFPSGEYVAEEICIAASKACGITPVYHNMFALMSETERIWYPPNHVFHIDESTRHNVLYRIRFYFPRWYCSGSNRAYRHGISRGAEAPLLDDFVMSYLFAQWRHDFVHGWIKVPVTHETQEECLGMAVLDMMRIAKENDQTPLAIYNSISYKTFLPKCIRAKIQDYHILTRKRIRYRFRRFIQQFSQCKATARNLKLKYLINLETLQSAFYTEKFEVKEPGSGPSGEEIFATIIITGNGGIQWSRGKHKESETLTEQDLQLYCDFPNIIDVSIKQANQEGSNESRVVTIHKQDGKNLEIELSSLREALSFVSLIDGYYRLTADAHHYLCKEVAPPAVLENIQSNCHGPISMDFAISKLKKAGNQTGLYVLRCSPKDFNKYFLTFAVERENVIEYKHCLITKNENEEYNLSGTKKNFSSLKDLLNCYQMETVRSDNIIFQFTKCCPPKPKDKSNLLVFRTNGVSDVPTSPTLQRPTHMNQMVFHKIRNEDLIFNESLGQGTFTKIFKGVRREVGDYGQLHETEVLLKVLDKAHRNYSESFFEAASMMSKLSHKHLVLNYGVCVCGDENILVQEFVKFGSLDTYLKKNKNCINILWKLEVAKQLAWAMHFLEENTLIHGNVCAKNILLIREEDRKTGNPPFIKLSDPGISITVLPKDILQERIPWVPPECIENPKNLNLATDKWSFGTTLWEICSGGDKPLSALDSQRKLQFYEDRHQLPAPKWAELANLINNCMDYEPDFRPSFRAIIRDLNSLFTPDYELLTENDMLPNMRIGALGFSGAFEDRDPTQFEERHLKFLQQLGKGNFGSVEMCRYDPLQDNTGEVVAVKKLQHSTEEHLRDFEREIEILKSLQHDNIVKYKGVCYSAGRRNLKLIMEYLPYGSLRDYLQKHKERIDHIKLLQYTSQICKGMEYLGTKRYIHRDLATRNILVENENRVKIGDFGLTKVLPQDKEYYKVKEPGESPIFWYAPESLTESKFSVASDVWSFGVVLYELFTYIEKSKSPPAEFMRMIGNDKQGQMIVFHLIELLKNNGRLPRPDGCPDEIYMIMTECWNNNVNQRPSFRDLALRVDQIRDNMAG

Chain of Tyrosine-protein kinase JAK1 (P23458 whole entry): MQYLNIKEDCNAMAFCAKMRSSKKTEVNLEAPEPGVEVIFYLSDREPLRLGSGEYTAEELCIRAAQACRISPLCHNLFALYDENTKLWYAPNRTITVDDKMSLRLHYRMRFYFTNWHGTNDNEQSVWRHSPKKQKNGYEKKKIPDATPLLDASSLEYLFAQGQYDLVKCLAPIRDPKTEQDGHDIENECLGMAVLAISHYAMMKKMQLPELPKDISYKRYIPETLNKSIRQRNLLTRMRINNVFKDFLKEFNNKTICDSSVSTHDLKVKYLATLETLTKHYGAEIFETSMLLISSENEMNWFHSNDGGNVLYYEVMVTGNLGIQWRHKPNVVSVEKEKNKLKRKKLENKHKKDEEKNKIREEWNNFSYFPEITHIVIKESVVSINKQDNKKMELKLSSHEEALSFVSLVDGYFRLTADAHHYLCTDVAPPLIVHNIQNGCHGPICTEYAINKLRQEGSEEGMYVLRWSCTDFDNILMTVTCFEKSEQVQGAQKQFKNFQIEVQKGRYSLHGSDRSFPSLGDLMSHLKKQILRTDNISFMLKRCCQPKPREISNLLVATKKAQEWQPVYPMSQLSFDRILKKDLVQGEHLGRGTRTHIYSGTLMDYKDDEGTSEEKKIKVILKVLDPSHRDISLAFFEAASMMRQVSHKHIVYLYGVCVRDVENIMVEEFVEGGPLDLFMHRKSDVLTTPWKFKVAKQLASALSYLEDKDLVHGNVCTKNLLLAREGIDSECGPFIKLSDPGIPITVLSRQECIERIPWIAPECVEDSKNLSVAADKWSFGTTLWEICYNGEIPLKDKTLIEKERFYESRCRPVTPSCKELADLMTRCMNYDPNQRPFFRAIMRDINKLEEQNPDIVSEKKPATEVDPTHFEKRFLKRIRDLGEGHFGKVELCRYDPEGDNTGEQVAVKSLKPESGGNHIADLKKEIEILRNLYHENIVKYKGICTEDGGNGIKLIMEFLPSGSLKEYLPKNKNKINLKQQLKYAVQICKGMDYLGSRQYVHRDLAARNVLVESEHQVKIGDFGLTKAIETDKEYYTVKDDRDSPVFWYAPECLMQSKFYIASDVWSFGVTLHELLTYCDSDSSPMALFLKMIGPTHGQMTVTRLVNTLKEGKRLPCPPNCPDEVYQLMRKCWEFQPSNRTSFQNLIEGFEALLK
Chain of Non-receptor tyrosine-protein kinase TYK2 (P29597 whole entry): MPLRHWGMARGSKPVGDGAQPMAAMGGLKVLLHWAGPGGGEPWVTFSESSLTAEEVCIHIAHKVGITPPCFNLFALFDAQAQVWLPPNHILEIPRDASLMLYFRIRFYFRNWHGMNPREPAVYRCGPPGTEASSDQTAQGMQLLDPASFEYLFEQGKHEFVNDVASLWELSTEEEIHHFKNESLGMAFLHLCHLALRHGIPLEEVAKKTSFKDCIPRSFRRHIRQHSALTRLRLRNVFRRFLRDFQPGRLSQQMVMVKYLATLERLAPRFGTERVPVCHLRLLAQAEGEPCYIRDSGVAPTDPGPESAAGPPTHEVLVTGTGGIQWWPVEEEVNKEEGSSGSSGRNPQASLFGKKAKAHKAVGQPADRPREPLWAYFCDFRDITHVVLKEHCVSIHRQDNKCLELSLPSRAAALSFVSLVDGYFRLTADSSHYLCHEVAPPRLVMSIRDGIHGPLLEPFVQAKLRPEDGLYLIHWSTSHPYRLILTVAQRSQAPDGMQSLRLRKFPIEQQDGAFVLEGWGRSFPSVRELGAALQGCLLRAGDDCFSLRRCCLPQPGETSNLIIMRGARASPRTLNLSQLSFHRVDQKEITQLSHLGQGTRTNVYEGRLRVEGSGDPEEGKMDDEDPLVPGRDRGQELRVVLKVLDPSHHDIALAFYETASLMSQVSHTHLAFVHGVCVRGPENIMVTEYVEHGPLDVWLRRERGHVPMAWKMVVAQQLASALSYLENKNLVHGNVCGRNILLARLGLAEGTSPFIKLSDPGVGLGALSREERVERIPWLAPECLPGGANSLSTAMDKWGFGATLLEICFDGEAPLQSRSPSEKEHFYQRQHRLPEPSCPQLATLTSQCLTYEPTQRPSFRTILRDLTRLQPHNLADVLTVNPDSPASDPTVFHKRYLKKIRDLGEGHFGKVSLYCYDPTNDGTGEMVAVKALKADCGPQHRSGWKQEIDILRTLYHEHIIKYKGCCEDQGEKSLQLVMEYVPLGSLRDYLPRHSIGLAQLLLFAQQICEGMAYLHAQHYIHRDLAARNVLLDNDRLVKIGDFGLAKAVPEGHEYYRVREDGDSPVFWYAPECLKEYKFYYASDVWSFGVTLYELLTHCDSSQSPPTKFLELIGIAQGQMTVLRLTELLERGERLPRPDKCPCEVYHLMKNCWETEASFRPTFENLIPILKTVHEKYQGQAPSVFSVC

Structure (SMILES) | IC50 [1] [nM] | IC50 [2] [nM] | IC50 [3] [nM] | IC50 [4] [nM]
Cc1nnc(-c2n[nH]c3cc(-c4cc(F)c(O)cc4CC(F)(F)F)nc(NCc4ccccc4N(C)S(C)(=O)=O)c23)[nH]1 | 429 | 150 | 27.5 | 129
CCc1cc(O)ccc1-c1cc2[nH]ncc2c(N2CC(Oc3ccccc3)C2)n1 | 67.5 | 5170 | 12.1 | 82.9
CN(c1ccc(O)cc1CNc1nc(-c2cc(F)c(O)cc2CC(F)(F)F)nc2[nH]nc(C(N)=O)c12)S(C)(=O)=O | 38 | 373 | 3.2 | 12.7
CN(c1ccc(O)cc1CNc1nc(-c2cc(F)c(O)cc2CC(F)(F)F)nc2[nH]nc(-c3nc4c([nH]3)CCNC4)c12)S(C)(=O)=O | 111 | 68.6 | 5.6 | 35.3
CS(=O)(=O)N(CCO)c1ccccc1CNc1nc(-c2cc(F)c(O)cc2CC(F)(F)F)cc2[nH]nc(C(N)=O)c12 | 53.5 | 48.8 | 2.9 | 14.7
CN(c1ccccc1CNc1nc(-c2cc(F)c(O)cc2CC(F)(F)F)nc2[nH]nc(-c3nnc(C4CCN(C(=O)CN5CCCC5)CC4)[nH]3)c12)S(C)(=O)=O | 158 | 2260 | 16.8 | 54.3
CCc1cc(O)ccc1-c1cc2[nH]ncc2c(NCCc2ccc(-c3ccccc3)cc2)n1 | 157 | 4230 | 87.6 | 183
